In patent US20010011128A1, “Hex II tumor-specific promoter and uses thereof” (priority 1996, published 2001):

Assays:
[1] = system: HK II promoter in NCI-H661 cells; test: Regulation of HK II promoter (pHexII4557 CAT) by glucose, insulin, glucagon; type: cell-based, human; conditions: NCI-H661 transfected with pHexII4557 CAT; 25 mM glucose, 100 nM insulin, 10 μM glucagon
Experimental: Transient transfections were performed using Lipofect AMINE (Canadian Life Technologies. Burlington, ON, Canada). Seventy to 80% confluent cells were transfected with 1 μg of the reporter plasmid pCAT, pMUCI-1583 CAT, pHexII4557 CAT, or pRSV CAT (Rous sarcoma virus long terminal repeat promoter) (ATCC). One microgram of pSV2-Pgalactosidase (Promega) was cotransfected as an internal control for variations in transfection efficiency in serum-free Dulbecco's modified Eagle's medium (DMEM). The medium was replaced with fresh growth medium after 6 hr. In promoter regulation experiments, the cells were transfected in RPMI 1640 glucose-deficient medium. Six hours after transfection, the medium was replaced with RPMI 1640 glucose-deficient medium supplemented with 100 nM bovine insulin. 25 mM glucose, or 10 μM glucagon (Sigma Aldrich Canada. Oakville. ON, Canada) or a combination of insulin and glucose, supplemented with 1 mM sodium pyruvate and 100 μM glucose. […] The protein concentration of the extracts was measured using the Bradford protein assay from Bio-Rad (Mississauga, ON. Canada) and equal amounts were assayed in the chloramphenicol acetyltransferase (CAT) and β-galactosidase assays, which were carried out as described by the manufacturer (Promega). Percent acetylation was measured using the Bio-Rad Gelscan Phos-phoimager and the Molecular Analyst software program. […]

[2] = system: H661 non-small cell lung carcinoma cells; test: CAT reporter gene assay, Hex II promoter activation (first series); type: cell-based, human; conditions: treatment of the transfectants
Experimental: Transient transfections were performed using lipofectamine according to the manufacturer's recommendations (GIBCO-BRL). Cells were plated the day before transfection to give 60% confluency in 6-well plates. The p1583/+33MUC1.CAT or pHex4557.CAT vectors were transfected along with pSV2lacZ to determine promoter activity. 1 ug of each plasmid were used for each well. All conditions assayed were done in duplicate. The plasmids pRSV.CAT and promoterless pCAT were used as positive and negative controls, respectively. Cells extracts were prepared 48 hours after transfection and β-galactosidase activity was assayed to compensate for variations in transfection efficiency. CAT activity was determined from 75-100 ug of proteins. The reaction was carried out with 0.1 uCi of ^14C-labeled chloramphenicol in a 100 ul reaction at 37° C. for 4 hrs.

HK II mRNA in NHBECs = test: Ribonuclease protection assay of HK II mRNA; type: cell-based, human; conditions: 25 mM glucose, 100 nM insulin, 10 μM glucagon, 12 hr
Experimental: For regulation studies, cells were grown to subconfluence in 75-cm^2 flasks, starved in serum-free, glucose-deficient RPMI 1640 medium (Canadian Life Technologies) for 18 hr, and induced in 25 mM glucose, 100 nM insulin, and 10 μM glucagon (Sigma Aldrich Canada) for 12 hr. RNA was extracted from cells using RNAzol (Tel-Test, Friendswood, Tex.) as described by the manufacturer. Contaminating DNA was digested with 5-10 units of DNase I (Pharmacia Biotech) in 10 mM MgCl2, 1 mM dithiothreitol (DTT), […] of RNA Guard (Pharmacia Biotech), 50-80 μl of total RNA at 1 μg/μl for 30 min at 37° C., followed by precipitation of total RNA.
The HK II probe (0.1 fmol) and the human β-actin probe (2 fmol) were simultaneously hybridized to 30 μg of total RNA using the RPA II kit (Ambion, Austin, Tex.) according to the manufacturer recommendations. Probes were prepared by in vitro transcription using the MAXIscript kit (Ambion) and [α-^32P]UTP (6000 Ci/mmol, 40 mCi/ml). HK II (nucleotides 1500 to 1803 of HK II cDNA; GenBank Z-16376) was inserted in the pDP18-T7/T3 vector (Ambion). The template was cut with KpnI at the 5′ end of the insert and transcribed toward that site from the T7 promoter to produce a 430-bp transcript. The HK II-protected fragment is 303 bp. […] Quantitation was performed using the NIH Image 1.67b densitometry software.

[3] = MTT cell viability assay, pΔE1sp1B Hex TK transfectants treated with gancyclovir; type: cell-based; conditions: GCV 10 or 25 ug/ml, controls GCV alone or plasmid only
Experimental: Cells in the logarithmic phase of growth were resuspended at a concentration of 2×10^5 cells/ml. 2 ml/well were plated in 6-well plates. Plates were incubated for 24 h at 37° C. in 5% CO2. Subsequently, cells were transfected with the pΔE1sp1B Hex TK plasmid as described above. […] Each condition was done in triplicate. Cells survival was calculated in the treated population as a percentage of controls. Controls are cells transfected with the plasmid alone or treated with the drug alone. MTT assays was performed two days following treatment. The formazan crystals were dissolved in […] (Fisher) and glycine buffer (0.1 M glycine-0.1 M NaCl, pH 10.5). The formazan product formed by viable cells was quantitated by measuring the absorbance at a wavelength of 570 nm.

## insulin: bovine insulin, regulator of glucose metabolism
[1]
  HK II promoter activation, increase over basal: did not lead to significant differences

## glucagon: regulator of glucose metabolism, physiological inhibitor of Hex II
[2]
  effect on Hex II promoter activation: did not inhibit promoter activation
[1]
  HK II promoter activation, increase over basal: did not lead to significant differences
HK II mRNA in NHBECs
  HK II mRNA level relative to basal: repressed HK II expression

## Nc1nc(O)c2ncn(COC(CO)CO)c2n1 [GCV, gancyclovir]
[3]
  cell survival less than control cells: 50%
